From patent US20070207503A1, “DETECTION OF ALCOHOL-ESTERIFIED FATTY ACIDS” (priority 2006, published 2007) come the findings set out here.

Assay [1] concerns antibodies against 14,15-DHET. The experiment in a line: 14,15-DHET solid phase competitive ELISA, specificity. It counts as binding, goat. Conditions: 14,15-DHET ELISA, panel of eicosanoids. As for the experimental part:
(§1) High-binding microplates were coated with protein G-purified IgG suspended in 1 M carbonate, pH 9.01 (10 μg/well; 200 μL/well final volume) and then covered with parafilm. After overnight incubation at room temperature, the welts were gently washed five times with tris buffered saline (TBS), pH 7.5, containing 0.1% tween. Non-specific sites were blocked by the addition of 0.2 mL of 5% (w/v) nonfat dry milk in TBS. After 2 hours of incubation at room temperature, they were washed three times with TBS-tween.
(§2) Standards were serially diluted with TBS (100 μL). The diluted samples (100 μL) were added to the IgG-coated plate. Approximately 50 ng of the DHET HRP conjugates were diluted with HRP-dilution buffer (100 μL) and added to the well. Following incubation for 2 hours to permit competitive binding of the molecules to the antibody, unbound material was removed by thorough washing of the wells with TBS-tween, and 150 μL of a calorimetric substrate for HRP [3,3′,5,5′ tetramethylbenzidine (TMB) and hydrogen peroxide] (Sigma Co.) was added. The plate is then incubated for 30 min, the reaction stopped by addition of 75 μL of 1 N H2SO4, and the absorbance at 450 nm was measured using a microtiter plate reader. Under these assay conditions, the amount of color in a well is inversely proportional to the initial concentration of the sample or the standard ligand.
(§3) The specificity of the 14,15-DHET ELISA was investigated using authentic DHET and a panel of eicosanoids which, based on their structure, might be anticipated to compete with 14,15-DHET for binding to antibodies against 14,15-DHET.
(§4) In a typical standard graph for 14,15-DHET, the r2 value for the fit of the data to an equation describing an inverse logarithmic relationship of free 14,15-DHET to B/Bo was usually higher than 0.96. The detection limits for 14,15- and 11,12-DHET with ELISAwere ˜1 pg.
(ELISA stands for enzyme-linked immunosorbent assay.)

The nature of assay [2]: Form-specific antibody production / specificity of anti-14,15-, 11,12-, 8,9- and 5,6-DHETs. The assay is classed as binding. Conditions: DHET coupled to KLH, goat immunized. As for the experimental part: Synthetic 14,15-, 11,12- or 8,9-DHETs were coupled to KLH using dicyclohexylcarbodiimide (DCC) as previously described (10). The 5,6-DHET with COOH at C1 blocked by NH3 to prevent lactone formation were coupled to KLH using 1-ethyl-3-(3-dimethylaminopropyl)carbodiimide hydrochloride (EDC) according to the manufacturer's instruction (Pierce Biotechnology, Rockford, Ill).
The conjugate was used to immunize a goat and antibody titers were determined by ELISA using the DHET-conjugated bovine serum albumin (BSA).
as §3
(§5) The specificity of the antibody developed against 14,15-DHET was further investigated utilizing slot blot analysis. The 14,15-DHET conjugated BSA, BSA alone and 8,9-DHET conjugated to BSA were blotted onto cellulose membrane. Slot blot analysis was carried out with anti-14,15-DHET. […] Anti-8,9-DHET cross-reacted with both 8,9- and 14,15-DHETs.

In assay [3] the test system is 11,12-DHET IgG. The experiment in a line: 11,12-DHET solid phase competitive ELISA, specificity. The assay is classed as binding, goat. The conditions noted are these: 11,12-DHET ELISA, authentic DHETs. How it is done:
as §1, §2, §3, §4

The subject of assay [4] is Anti-8,9-DHET. The experiment in a line: Cross-reaction of anti-8,9-DHET. The assay is classed as binding, goat. How it is done: as §5
In assay [5] the test system is ethanol-esterified 13-HODE IgG. The experiment in a line: Competitive ELISA with HRP conjugated with ethanol-esterified 13-HODE. It counts as binding, goat. Conditions: plate coated with the IgG, various concentrations. How it is done:
FIG. 6 is a graph showing a competitive ELISA carried out with various concentrations of BSA and 13-HODE ethyl ester conjugated BSA to show cross-reactivity of the antibody to the 13-HODE ethyl ester.
A competitive ELISA using a plate coated with the IgG was carried out with various concentrations of BSA conjugated with ethanol-esterified 13-HODE and HRP conjugated with ethanol-esterilied 13-HODE. A negative control for this ELISA was BSA.
ELISA was carried out with serially diluted BSA or ethyl ester of 13-HODE-conjugated BSA and ˜50 ng/100 μl of the ethyl ester of 13-HODE HRP conjugates as described in Example 1.

Molecules are shown by their SMILES.

Turning to `CCCCC[C@H](O)/C=C/C=C\C/C=C\C=C\[C@@H](O)CCCC(=O)O` [5(s)15(S)DiHETE], the “cross-reaction with anti-14,15-DHET” value in assay [1] was “did not cross-react”. Consider `CCCCC/C=C\C/C=C\C/C=C\CC(O)C(O)CCCC(=O)O` (stereo not shown) [5,6-DHET], for which the form-specific antibody production result in assay [2] was “failed”. Also, the “cross-reaction with anti-14,15-DHET” value in assay [1] is “did not cross-react”. In addition, in assay [3], the “cross-reaction with 11,12-DHET IgG” value was “didn't cross-react”. With `CCCCC/C=C\C/C=C\C/C=C\CC1OC1CCCC(=O)O` (stereo not shown) [5,6-EET], the “cross-reaction with anti-14,15-DHET” value in assay [1] was “did not cross-react”. Still for that read-out and setting: to `CCCCC[C@H](O)/C=C/[C@@H]1[C@@H](CC(=O)CCCCC(=O)O)[C@@H](O)C[C@H]1O` [6-keto-PGF1a] belongs “did not cross-react”. For the compound `CCCCC/C=C\C/C=C\CC(O)C(O)C/C=C\CCCC(=O)O` (stereo not shown) [8,9-DHET], the form-specific antibody production entry in assay [2] is on record as “failed”. Also, in assay [4], the “cross-reaction with anti-8,9-DHET” value is on record as “cross-reacted”. In addition, in assay [1], the “cross-reaction with anti-14,15-DHET” value is given as “minimal cross-reaction”. Besides, the “cross-reaction with 11,12-DHET IgG” value in assay [3] is “minimal cross-reaction”. With `CCCCC/C=C\C/C=C\CC1OC1C/C=C\CCCC(=O)O` (stereo not shown) [8,9-EET], the “cross-reaction with anti-14,15-DHET” value in assay [1] is “did not cross-react”. As for `CCCCC/C=C\CC(O)C(O)C/C=C\C/C=C\CCCC(=O)O` (stereo not shown) [11,12-DHET], the form-specific antibody production entry in assay [2] is reported as “successful”. Moreover, in assay [1], the “cross-reaction with anti-14,15-DHET” value is given as “minimal cross-reaction”. In the case of `CCCCC/C=C\C[C@H]1O[C@H]1C/C=C\C/C=C\CCCC(=O)O` [11,12-EET], in assay [1], the “cross-reaction with anti-14,15-DHET” value is given as “did not cross-react”.

For the compound `CCCCCC(O)C(O)C/C=C\C/C=C\C/C=C\CCCC(=O)O` (stereo not shown) [14,15-DHET], the form-specific antibody production entry in assay [2] is “successful”. For the same compound, in assay [4], the “cross-reaction with anti-8,9-DHET” value is listed as “cross-reacted”. Besides, in assay [3], the “cross-reaction with 11,12-DHET IgG” value is reported as “minimal cross-reaction”. On to `CCCCCC1OC1C/C=C\C/C=C\C/C=C\CCCC(=O)O` (stereo not shown) [14,15-EET], for which the “cross-reaction with anti-14,15-DHET” value in assay [1] is “did not cross-react”.

For the compound `CCCCC[C@H](O)/C=C/C=C\C/C=C\C/C=C\CCCC(=O)O` [15(S)HETE], the “cross-reaction with anti-14,15-DHET” value in assay [1] is reported as “did not cross-react”. Turning to `CCCCC/C=C\C/C=C\CCCCCCCC(=O)OCC` [Ethanol-esterified linoleic acid, linoleic acid ethyl ester], in assay [5], the “competition with ethanol-esterified 13-HODE-HRP conjugate for binding to the IgG” value is given as “competed with the HRP conjugated with ethanol-esterified 13-HODE in a dose-dependent manner”. `CCCCC[C@H](O)/C=C/[C@H]1[C@H](O)CC(=O)[C@@H]1C/C=C\CCCC(=O)O` [PGE2]: the “cross-reaction with anti-14,15-DHET” value in assay [1] was “did not cross-react”. Same read-out and setting: the result for `CCCCC[C@H](O)/C=C/[C@@H]1[C@@H](C/C=C\CCCC(=O)O)[C@@H](O)C[C@H]1O` [PGF2a] reads “did not cross-react”; that for `CCCCC[C@H](O)/C=C/[C@H]1OC(O)C[C@H](O)[C@@H]1C/C=C\CCCC(=O)O` (stereo partly shown) [Thromboxane B2], “did not cross-react”.

Turning to `CCCCC/C=C\C/C=C\C/C=C\C/C=C\CCCC(=O)O` [arachidonic acid], the “cross-reaction with anti-14,15-DHET” value in assay [1] is listed as “did not cross-react”. For the compound `CCO` [ethanol], the “competition with ethanol-esterified 13-HODE-HRP conjugate for binding to the IgG” value in assay [5] was “competed with the HRP conjugated with ethanol-esterified 13-HODE in a dose-dependent manner”.
